From the NIST ThermoML archive (doi:10.1007/s10765-011-1052-5)
Values joined by “and” are separate entries in the source; they are usually repeats but may differ in a detail not shown here. Equal entries are not always repeated. Numbers after ± are expanded uncertainties.

Settings: Fluid (supercritical or subcritical phases), Hot wire method

[He] [helium]
Settings | thermal conductivity
323.19 K, 5030 kPa | 0.1676 ± 0.0038 W/m/K
323.19 K, 10055 kPa | 0.1696 ± 0.0038 W/m/K and 0.1695 ± 0.0038 W/m/K and 0.1694 ± 0.0038 W/m/K
323.19 K, 29885 kPa | 0.1784 ± 0.004 W/m/K and 0.1786 ± 0.004 W/m/K
323.19 K, 29886 kPa | 0.1782 ± 0.004 W/m/K
323.19 K, 29887 kPa | 0.1783 ± 0.004 W/m/K
323.2 K, 5030 kPa | 0.1674 ± 0.0038 W/m/K and 0.1675 ± 0.0038 W/m/K and 0.1677 ± 0.0038 W/m/K
323.21 K, 50067 kPa | 0.187 ± 0.0042 W/m/K
323.21 K, 50070 kPa | 0.1872 ± 0.0042 W/m/K
323.21 K, 50072 kPa | 0.1872 ± 0.0042 W/m/K
323.21 K, 50075 kPa | 0.187 ± 0.0042 W/m/K
323.21 K, 70102 kPa | 0.196 ± 0.0044 W/m/K
323.21 K, 70105 kPa | 0.196 ± 0.0044 W/m/K
323.21 K, 70109 kPa | 0.1961 ± 0.0044 W/m/K
323.21 K, 70112 kPa | 0.1964 ± 0.0044 W/m/K
323.21 K, 98251 kPa | 0.2089 ± 0.0047 W/m/K
323.21 K, 98254 kPa | 0.2085 ± 0.0047 W/m/K
323.21 K, 98259 kPa | 0.2085 ± 0.0047 W/m/K
323.21 K, 98263 kPa | 0.2086 ± 0.0047 W/m/K
373.22 K, 5137 kPa | 0.1853 ± 0.0042 W/m/K
373.22 K, 30213 kPa | 0.1948 ± 0.0044 W/m/K
373.22 K, 30214 kPa | 0.1948 ± 0.0044 W/m/K and 0.1945 ± 0.0044 W/m/K
373.22 K, 49990 kPa | 0.2028 ± 0.0045 W/m/K
373.22 K, 49992 kPa | 0.2028 ± 0.0045 W/m/K
373.22 K, 49994 kPa | 0.2033 ± 0.0046 W/m/K
373.23 K, 5137 kPa | 0.185 ± 0.0042 W/m/K and 0.1845 ± 0.0041 W/m/K
373.23 K, 10114 kPa | 0.1866 ± 0.0042 W/m/K and 0.1868 ± 0.0042 W/m/K
373.23 K, 69936 kPa | 0.2139 ± 0.0048 W/m/K and 0.2138 ± 0.0048 W/m/K
373.23 K, 69937 kPa | 0.214 ± 0.0048 W/m/K
373.23 K, 97514 kPa | 0.2284 ± 0.0051 W/m/K
373.23 K, 97516 kPa | 0.2277 ± 0.0051 W/m/K
373.23 K, 97527 kPa | 0.2275 ± 0.0051 W/m/K
473.27 K, 5260 kPa | 0.2166 ± 0.0049 W/m/K
473.27 K, 5261 kPa | 0.2169 ± 0.0049 W/m/K
473.27 K, 10172 kPa | 0.2187 ± 0.0049 W/m/K and 0.2183 ± 0.0049 W/m/K
473.27 K, 10173 kPa | 0.2193 ± 0.0049 W/m/K
473.27 K, 50076 kPa | 0.2321 ± 0.0052 W/m/K
473.27 K, 50078 kPa | 0.2322 ± 0.0052 W/m/K
473.27 K, 50080 kPa | 0.2317 ± 0.0052 W/m/K
473.27 K, 70131 kPa | 0.2428 ± 0.0054 W/m/K
473.27 K, 70135 kPa | 0.2422 ± 0.0054 W/m/K
473.27 K, 70138 kPa | 0.2419 ± 0.0054 W/m/K
473.27 K, 99148 kPa | 0.2558 ± 0.0057 W/m/K
473.27 K, 99151 kPa | 0.2549 ± 0.0057 W/m/K
473.27 K, 99156 kPa | 0.2552 ± 0.0057 W/m/K
473.28 K, 5261 kPa | 0.2173 ± 0.0049 W/m/K
473.28 K, 30084 kPa | 0.2252 ± 0.005 W/m/K
473.28 K, 30085 kPa | 0.2251 ± 0.005 W/m/K and 0.226 ± 0.0051 W/m/K
473.29 K, 99160 kPa | 0.2472 ± 0.0055 W/m/K
573.24 K, 30146 kPa | 0.2549 ± 0.0057 W/m/K
573.24 K, 50100 kPa | 0.2618 ± 0.0059 W/m/K
573.24 K, 70129 kPa | 0.2675 ± 0.006 W/m/K
573.24 K, 97066 kPa | 0.2798 ± 0.0063 W/m/K
573.24 K, 97071 kPa | 0.2805 ± 0.0063 W/m/K
573.24 K, 97072 kPa | 0.2792 ± 0.0063 W/m/K
573.25 K, 5197 kPa | 0.2478 ± 0.0056 W/m/K
573.25 K, 5199 kPa | 0.2472 ± 0.0055 W/m/K
573.25 K, 5200 kPa | 0.2477 ± 0.0055 W/m/K
573.25 K, 10292 kPa | 0.2503 ± 0.0056 W/m/K
573.25 K, 10294 kPa | 0.2496 ± 0.0056 W/m/K
573.25 K, 10295 kPa | 0.2496 ± 0.0056 W/m/K
573.25 K, 30146 kPa | 0.2552 ± 0.0057 W/m/K
573.25 K, 30149 kPa | 0.2558 ± 0.0057 W/m/K
573.25 K, 50095 kPa | 0.2609 ± 0.0058 W/m/K
573.25 K, 50100 kPa | 0.2599 ± 0.0058 W/m/K
573.25 K, 70160 kPa | 0.268 ± 0.006 W/m/K
573.25 K, 70165 kPa | 0.2662 ± 0.006 W/m/K
672.87 K, 98224 kPa | 0.3057 ± 0.0068 W/m/K
672.87 K, 98230 kPa | 0.3055 ± 0.0068 W/m/K
672.87 K, 98231 kPa | 0.3054 ± 0.0068 W/m/K
672.88 K, 30064 kPa | 0.2852 ± 0.0064 W/m/K
672.88 K, 30085 kPa | 0.2823 ± 0.0063 W/m/K
672.88 K, 50184 kPa | 0.2882 ± 0.0065 W/m/K
672.88 K, 70068 kPa | 0.293 ± 0.0066 W/m/K
672.88 K, 70074 kPa | 0.2949 ± 0.0066 W/m/K
672.88 K, 70081 kPa | 0.2948 ± 0.0066 W/m/K
672.89 K, 5417 kPa | 0.2774 ± 0.0062 W/m/K
672.89 K, 10409 kPa | 0.2788 ± 0.0062 W/m/K
672.89 K, 10412 kPa | 0.279 ± 0.0062 W/m/K
672.89 K, 10414 kPa | 0.2784 ± 0.0062 W/m/K
672.89 K, 30054 kPa | 0.2843 ± 0.0064 W/m/K
672.89 K, 50178 kPa | 0.2895 ± 0.0065 W/m/K
672.89 K, 50182 kPa | 0.2888 ± 0.0065 W/m/K
672.9 K, 5413 kPa | 0.2765 ± 0.0062 W/m/K
672.9 K, 5416 kPa | 0.277 ± 0.0062 W/m/K
771.89 K, 50118 kPa | 0.3162 ± 0.0071 W/m/K
771.89 K, 50125 kPa | 0.3184 ± 0.0071 W/m/K
771.89 K, 50128 kPa | 0.3182 ± 0.0071 W/m/K
771.89 K, 70299 kPa | 0.3237 ± 0.0072 W/m/K
771.89 K, 70303 kPa | 0.3173 ± 0.0071 W/m/K
771.89 K, 70305 kPa | 0.3224 ± 0.0072 W/m/K
771.89 K, 99452 kPa | 0.3302 ± 0.0074 W/m/K
771.89 K, 99460 kPa | 0.3299 ± 0.0074 W/m/K
771.89 K, 99462 kPa | 0.3321 ± 0.0074 W/m/K
771.9 K, 30345 kPa | 0.3126 ± 0.007 W/m/K
771.9 K, 30348 kPa | 0.3102 ± 0.0069 W/m/K
771.9 K, 30350 kPa | 0.313 ± 0.007 W/m/K
771.91 K, 10197 kPa | 0.3094 ± 0.0069 W/m/K
771.91 K, 10199 kPa | 0.3093 ± 0.0069 W/m/K
771.92 K, 5204 kPa | 0.3065 ± 0.0069 W/m/K
771.93 K, 3005 kPa | 0.3046 ± 0.0068 W/m/K
771.93 K, 3008 kPa | 0.3049 ± 0.0068 W/m/K
771.93 K, 5202 kPa | 0.3079 ± 0.0069 W/m/K
771.94 K, 1059 kPa | 0.2998 ± 0.0067 W/m/K
771.94 K, 1068 kPa | 0.3028 ± 0.0068 W/m/K
771.94 K, 1071 kPa | 0.3022 ± 0.0068 W/m/K
771.94 K, 1074 kPa | 0.304 ± 0.0068 W/m/K
771.94 K, 3001 kPa | 0.3012 ± 0.0067 W/m/K
771.94 K, 3003 kPa | 0.3055 ± 0.0068 W/m/K
